Reference: patent US20220111065A1, “MOLECULAR ADJUVANT” (ADC THERAPEUTICS SA, priority 2018, published 2022)

Key:
[1] = tested on: CD25-positive acute myeloid leukemia (AML); assay: Phase 1 study of ADCx25, weekly fractionated dosing, in relapsed or refractory AML/ALL (Example 2); type: in vivo, human
Source text: Patients with relapsed or refractory cluster of differentiation 25 (CD25)-positive acute myeloid leukemia (AML) or CD25-positive acute lymphoblastic leukemia (ALL) who have failed, or are intolerant to, any established therapy known to provide clinical benefit at current state of disease. Patients with myelodysplastic syndrome who have received treatment with hypomethylating agents and subsequently present with CD25+ AML and who failed, or are ineligible for standard induction therapy, are eligible for treatment with ADCx25.
Assessment of response to treatment with ADCX25 will be based on bone marrow samples (aspirate or biopsy, if aspirate unattainable). The activity of ADCX25 will be evaluated based on the Investigator's evaluation of the patient's response to ADCX25 as CR, CRi, PR, PD, or NR as defined herein.
ADCX25 is a sterile formulation containing PBD-conjugated HuMax®-TAC (DAR≥1), HuMax®-TAC (DAR=0), and SG3249. It is provided pre-formulated in 10-mL glass vials containing approximately 30 mg of ADCX25 per vial (deliverable volume 5.4 mL at 6 mg/mL). The appropriate quantity of ADCX25 will be diluted in 50 mL of 5% dextrose in water (D5W).
Patients will receive a 1-hour intravenous (IV) infusion of ADCX25 on Day 1 of Cycle 1. […]

MC38 cells [2] = assay: Re-challenge of tumor-free survivors from MC38 efficacy study (Example 3); type: in vivo, mouse; conditions: complete responders of Example 1 re-implanted with MC38 cells in contralateral flank; no treatment in re-challenge (FIG. 4)
Protocol: On Day 1 of the re-challenge study, 5×10^5 MC38 cells (0.1 mL suspension) were subcutaneously implanted into the left flank (contralateral to the original cell implant) and tumor growth was monitored. No ADC or anti-PD-1 treatment was administered in the rechallenge study.
Animal handling and tumour measurement was as in Example 1 unless otherwise stated.

CT26 cells = assay: Re-challenge of tumor-free survivors from CT26 efficacy study (Example 5); type: in vivo, mouse; conditions: complete responders of Example 4 re-implanted with CT26 cells in contralateral flank; no treatment in re-challenge (FIG. 7)
Protocol: On Day 1 of the re-challenge study […] CT26 cells (0.1 mL suspension) were subcutaneously implanted into the left flank (contralateral to the cell implant of example 4) and tumor growth was monitored and measured as described in example 4.
No treatment was administered in the re-challenge study.

MC38 cells [3] = assay: MC38 efficacy with CD8+ T-cell depletion by anti-CD8 (Example 6); type: in vivo, mouse; conditions: CD8+ T-cells depleted with anti-CD8-2.43 antibody (FIG. 8, FIG. 9)
Source text: Treatment may cause partial regression (PR) or complete regression (CR) of the tumor in an animal.
In a PR response, the tumor volume is 50% or less of its Day 1 volume for three consecutive measurements during the course of the study, and equal to or greater than 13.5 mm^3 for one or more of these three measurements.
In a CR response, the tumor volume is less than 13.5 mm^3 for three consecutive measurements during the study.
Any animal with a CR response at the end of the study was additionally classified as a tumor-free survivor (TFS).
Animals were scored only once during the study for a PR or CR event and only as CR if both PR and CR criteria were satisfied.
The Coefficient of Drug Interaction (CDI) (11) in were assessed for subadditive, additive, or supra-additive (synergism) properties on Day 21, the last day all evaluable animals remained on study.
The CDI was determined according to the equation below:
Where, • x=mean tumor volume • AB=xAB/xC • A=xA/xC • B=xB/xC […]
On the day of implant 5×10^5 MC38 cells (0.1 mL suspension) were subcutaneously implanted into the right flank of each test animal. Tumors were monitored as their volumes approached the target range of 80-120 mm^3. […]
Tumors were measured twice per week until the study was ended (day29 for anti-CD8+surADCx25 and anti-CD8+anti-PD1+surADCx25 groups; day 44 for surADCx25 alone and surADCx25+anti-CD8). […]

[4] = tested on: selected advanced solid tumors; assay: Phase 1b dose-escalation study of Camidanlumab Tesirine in advanced solid tumors (Example 9); type: in vivo, human
Source text: This is a report of preliminary data from a Phase 1b trial of Camidanlumab Tesirine (NCT03621982; ADC Therapeutics) in patients (pt) with selected advanced solid tumors […] (AST) who have failed existing therapies.
This multicenter, open-label, dose-escalation (part 1), and dose-expansion (part 2) study is currently enrolling subjects (aged≥18 years) with selected AST. The primary objective is to evaluate the safety and tolerability and to identify the recommended dose. Secondary objectives are to assess preliminary antitumor activity, pharmacokinetics (PK), and immunogenicity.
Subjects receive 1-hour intravenous infusions of Camidanlumab Tesirine every 3 weeks (Q3W) from a starting dose cohort of 20 μg/kg. Subsequent cohorts are enrolled at escalating doses according to a 3+3 design.

advanced melanoma = conditions: phase III trials; cited from earlier work
[5] = 6 subjects, 20-30 μg/kg Q3W i.v., preliminary

Q: Which results are given for “ADCx25: human antibody against human CD25 (AB12, HuMax-TAC) attached to a pyrrolobenzodiazepine (PBD) warhead via a cleavable linker”?
A: clinical response of AML ([1]; 2 subjects with AML who had previously received bone marrow stem cell transfers): complete remission; response to treatment ([1]; Patient 1: relapsed AML FAB M0, 30 ug/kg QW cohort, prior allogenic transplant, after 5 cycles): CRi; development of new tumors on re-challenge (MC38 cells [2]): did not develop new tumors; development of new tumors on re-challenge (CT26 cells): did not develop new tumors; anti-tumor activity when CD8+ T-cells are depleted (MC38 cells [3]): dependent on CD8+ T-cells; number of subjects with stable disease ([4]; 20 μg/kg Q3W): 2; number of subjects with stable disease ([4]; 30 μg/kg Q3W, reported a few days after the cutoff date): 2; dose-limiting toxicities ([4]; 6 subjects, 20-30 μg/kg Q3W i.v., 21-day reporting period, preliminary, as of Apr. 16, 2019): No dose-limiting toxicities; best response recorded (response evaluation criteria in solid tumors) [4, 5]: Stable disease; most common (≥3 pts) adverse events regardless of relationship [4, 5]: fatigue and nausea; related high-grade AEs or serious AEs [4, 5]: no reported grade ?3 AEs or serious AEs considered related

B1: tremelimumab: anti-CTLA4 antibody (antibody)
VH: GVVQPGRSLRLSCAASGFTFSSYGMHWVRQAPGKGLEWVAVIWYDGSNKYYADSVKGRFTISRDNSKNTLYLQMNSLRAEDTAVYYCARDPRGATLYYYYYGMDVWGQGTTVTVSSASTKGPSVFPLAPCSRSTSESTAALGCLVKDYFPEPVTVSWNSGALTSGVH
VL: PSSLSASVGDRVTITCRASQSINSYLDWYQQKPGKAPKLLIYAASSLQSGVPSRFSGSGSGTDFTLTISSLQPEDFATYYCQQYYSTPFTFGPGTKVEIKRTVAAPSVFIFPPSDEQLKSGTASVVCLLNNFYPREAKV
modifications: Tremelimumab VH; Tremelimumab VL
notes: anti-CTLA4 antibody
Q: For B1, which “overall survival compared to the standard of care (temozolomide or dacarbazine)” value (advanced melanoma) is on record?
A: Its value is “did not significantly increase”.
